Results from PubChem BioAssay (NCI).
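In this assay, cells in 96-well plates receive the compound at five concentrations for 48 hours. Endpoints are linearly interpolated between the surrounding concentrations. GI50 = concentration required for 50% inhibition of growth. Definition used: TGI = concentration required for complete inhibition of growth.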

Legend:
Assay in all cases: growth of human tumour cells (NCI), 48 h
[1] = test system: K-562 leukemia
[2] = test system: HCT-116 colon
[3] = test system: HT29 colon
[4] = test system: SK-OV-3 ovarian
[5] = test system: 786-0 renal
[6] = test system: MDA-MB-231 breast
[7] = test system: TK-10 renal
[8] = test system: UACC-257 melanoma
[9] = test system: UO-31 renal
[10] = test system: SR leukemia
[11] = test system: SNB-19 CNS
[12] = test system: CAKI-1 renal
[13] = test system: RPMI-8226 leukemia
[14] = test system: ACHN renal
[15] = test system: MCF7 breast
[16] = test system: MOLT-4 leukemia
[17] = test system: NCI/ADR-RES ovarian
[18] = test system: COLO 205 colon
[19] = test system: SK-MEL-5 melanoma
[20] = test system: U251 CNS
[21] = test system: OVCAR-5 ovarian
[22] = test system: HOP-62 NSCLC
[23] = test system: MALME-3M melanoma
[24] = test system: BT-549 breast
[25] = test system: UACC-62 melanoma
[26] = test system: RXF 393 renal
[27] = test system: PC-3 prostate
[28] = test system: SF-539 CNS
[29] = test system: OVCAR-8 ovarian
[30] = test system: NCI-H226 lung
[31] = test system: T-47D breast
[32] = test system: A549 NSCLC
[33] = test system: NCI-H522 lung
[34] = test system: OVCAR-3 ovarian
[35] = test system: DU-145 prostate
[36] = test system: HOP-92 NSCLC
[37] = test system: HL-60(TB) leukemia
[38] = test system: EKVX NSCLC
[39] = test system: SK-MEL-28 melanoma
[40] = test system: SNB-75 CNS
[41] = test system: HCC-2998 colon
[42] = test system: SF-268 CNS
[43] = test system: SN12C renal
[44] = test system: IGROV1 ovarian
[45] = test system: A498 renal
[46] = test system: SF-295 CNS
[47] = test system: HS 578T breast
[48] = test system: M14 melanoma
[49] = test system: LOX IMVI melanoma
[50] = test system: HCT-15 colon
[51] = test system: KM12 colon
[52] = test system: SK-MEL-2 melanoma
[53] = test system: MDA-MB-435
[54] = test system: OVCAR-4 ovarian
[55] = test system: SW-620 colon
[56] = test system: NCI-H460 lung
[57] = test system: CCRF-CEM leukemia
[58] = test system: NCI-H23 lung
[59] = test system: MDA-N

COc1ccc(/C=C2\CS(=O)(=O)C/C(=C\c3ccc(OC)cc3)C2=O)cc1
GI50 [1]: 1.16 µM | GI50 [2]: 0.472 µM | TGI [2]: 1.43 µM | GI50 [3]: 0.999 µM | GI50 [4]: 3.3 µM | TGI [4]: 26.2 µM | GI50 [5]: 1.75 µM | TGI [5]: 3.21 µM | GI50 [6]: 3.01 µM | TGI [6]: 9.65 µM | GI50 [7]: 2.67 µM | TGI [7]: 6.91 µM | GI50 [8]: 1.67 µM | TGI [8]: 3.63 µM | GI50 [9]: 1.45 µM | TGI [9]: 3.02 µM | GI50 [10]: 0.182 µM | TGI [10]: 0.423 µM | GI50 [11]: 4.21 µM | TGI [11]: 18.1 µM | GI50 [12]: 2.16 µM | TGI [12]: 6.1 µM | GI50 [13]: 0.567 µM | TGI [13]: 4.89 µM | GI50 [14]: 1.79 µM | TGI [14]: 3.35 µM | GI50 [15]: 0.51 µM | TGI [15]: 7.83 µM | GI50 [16]: 2.22 µM | TGI [16]: > 22.2 µM | GI50 [17]: 2.06 µM | TGI [17]: 4.87 µM | GI50 [18]: 1.52 µM | TGI [18]: 2.94 µM | GI50 [19]: 1.57 µM | TGI [19]: 2.92 µM | GI50 [20]: 0.497 µM | TGI [20]: 1.85 µM | GI50 [21]: 3.16 µM | TGI [21]: 10.3 µM | GI50 [22]: 2.01 µM | TGI [22]: 4.36 µM | GI50 [23]: 2.41 µM | TGI [23]: 7.84 µM | GI50 [24]: 2.17 µM | TGI [24]: 5.28 µM | GI50 [25]: 1.44 µM | TGI [25]: 2.78 µM | GI50 [26]: 1.48 µM | TGI [26]: 2.9 µM | GI50 [27]: 2.09 µM | TGI [27]: 18.1 µM | GI50 [28]: 2.01 µM | TGI [28]: 4.28 µM | GI50 [29]: 1.21 µM | TGI [29]: 6.68 µM | GI50 [30]: 16.8 µM | TGI [30]: > 100 µM | GI50 [31]: 2.91 µM | TGI [31]: 28.4 µM | GI50 [32]: 2 µM | TGI [32]: 5.29 µM | GI50 [33]: 1.15 µM | TGI [33]: 3.02 µM | GI50 [34]: 1.79 µM | TGI [34]: 4.11 µM | GI50 [35]: 2 µM | TGI [35]: 5.41 µM | GI50 [36]: 8.74 µM | TGI [36]: 69 µM | GI50 [37]: 1.96 µM | TGI [37]: 5.73 µM | GI50 [38]: 3.07 µM | TGI [38]: > 36.8 µM | GI50 [39]: 1.7 µM | TGI [39]: 3.17 µM | GI50 [40]: 8.18 µM | TGI [40]: > 47.4 µM | GI50 [41]: 1.71 µM | TGI [41]: 3.09 µM | GI50 [42]: 1.7 µM | TGI [42]: 5.34 µM | GI50 [43]: 1.78 µM | TGI [43]: 4.04 µM | GI50 [44]: 1.75 µM | TGI [44]: 5.71 µM | GI50 [45]: 1.76 µM | TGI [45]: 3.67 µM | GI50 [46]: 2.42 µM | TGI [46]: 6.59 µM | GI50 [47]: 3.07 µM | TGI [47]: > 31.3 µM | GI50 [48]: 1.61 µM | TGI [48]: 3.09 µM | GI50 [49]: 0.646 µM | TGI [49]: 1.91 µM | GI50 [50]: 1.84 µM | TGI [50]: 4.82 µM | GI50 [51]: 0.676 µM | TGI [51]: 1.89 µM | GI50 [52]: 3.09 µM | TGI [52]: > 20.9 µM | GI50 [53]: 1.4 µM | TGI [53]: 5.29 µM | GI50 [54]: 3.19 µM | TGI [54]: > 30.8 µM | GI50 [55]: 1.32 µM | TGI [55]: 3.37 µM | GI50 [56]: 1.9 µM | TGI [56]: 4.49 µM | GI50 [57]: 1.35 µM | GI50 [58]: 1.64 µM | TGI [58]: 3.32 µM

CC(=O)NC(C)(C)C1CC=C(C)/C(=N\O)C1 (configuration not stated)
TGI [1]: > 100 µM | TGI [2]: > 100 µM | TGI [3]: > 100 µM | TGI [4]: > 100 µM | TGI [5]: > 100 µM | TGI [6]: > 100 µM | TGI [7]: > 100 µM | TGI [8]: > 100 µM | TGI [9]: > 100 µM | TGI [10]: > 100 µM | TGI [11]: > 100 µM | TGI [15]: > 100 µM | TGI [16]: > 100 µM | TGI [18]: > 100 µM | TGI [19]: > 100 µM | TGI [20]: > 100 µM | TGI [21]: > 100 µM | TGI [22]: > 100 µM | TGI [24]: > 100 µM | TGI [25]: > 100 µM | TGI [27]: > 100 µM | TGI [28]: > 100 µM | TGI [29]: > 100 µM | TGI [31]: > 100 µM | TGI [32]: > 100 µM | TGI [33]: > 100 µM | TGI [34]: > 100 µM | TGI [35]: > 100 µM | TGI [36]: > 100 µM | TGI [37]: > 100 µM | TGI [38]: > 100 µM | TGI [39]: > 100 µM | TGI [40]: > 100 µM | TGI [41]: > 100 µM | TGI [42]: > 100 µM | TGI [43]: > 100 µM | TGI [44]: > 100 µM | TGI [46]: > 100 µM | TGI [59]: > 100 µM | TGI [48]: > 100 µM | TGI [49]: > 100 µM | TGI [50]: > 100 µM | TGI [51]: > 100 µM | TGI [53]: > 100 µM | TGI [54]: > 100 µM | TGI [55]: > 100 µM | TGI [56]: > 100 µM | TGI [57]: > 100 µM | TGI [58]: > 100 µM
